Assay results published in patent US8809627B2, “Plant isoflavone and isoflavanone O-methyltransferase genes” (The Samuel Roberts Noble Foundation, Inc., priority 2006, dated 2014).
Where no end group is shown, it is not given here.

Assays:
[1] = system: MtIOMT7; assay: OMT assays with purified recombinant MtIOMT7 (relative activity; HPLC/MS of products); type: biochemical, Medicago truncatula; conditions: 50 μM S-adenosyl methionine, 100 μM acceptor substrate; most converted substrate = 100%
Source text: (§1) Cloning of MtIOMT5 (corresponding to TC 100926, TIGR MtGI v.8) was as described previously (Liu et al., 2005). To obtain a full-length cDNA for MtIOMT2, specific primers designed based upon the M. truncatula genomic sequence were used to amplify the MtIOMT2 coding sequence from M. truncatula root cDNA. The amplified product was cloned into the pGEM®-T easy vector (Promega, Madison Wis.) and sequenced to confirm its identity. MtIOMTs were cloned into the pET28a vector (EMD Biosciences, Inc., San Diego, Calif.) using PCR-based amplification with primers designed to introduce EcoRI and XhoI restriction sites; BamHI and XhoI sites were used for cloning MtIOMT6 due to the presence of an internal EcoRI site in this particular cDNA. Because the EST for MtIOMT8 was missing a start codon, the primer designed to clone MtIOMT8 into pET28a contained an additional 2-nucleotide insertion to generate an ATG start site. All MtIOMTs were expressed as translational fusions to an N-terminal His-tag. Expression of MtIOMTs in E. coli BL21(DE3) and purification by Ni^2+-NTA chromatography were as described (Zubieta et al., 2001). Proteins were dialyzed against 20 mM Tris pH 8.0, 100 mM NaCl, 10% (v/v) glycerol, and 14 mM β-mercaptoethanol. Protein concentration was determined by Bradford assay using BSA as a standard (Bradford, 1976).
(§2) Reactions (200 μl) were performed in 0.1 M potassium phosphate, pH 7.4, 10% (w/v) sucrose, 14 mM β-mercaptoethanol with 10 μM protein, 0.5 mM S-adenosyl-L-methionine, and 80 μM phenolic substrates. All substrates were purchased from Indofine (Hillsborough, N.J.) except 6,7-dihydroxy-4′-methoxyisoflavone, dihydrodaidzein, and vestitol, which were purchased from Apin (Oxfordshire, UK). […] OMT assays were incubated at 30° C. for 2 h and extracted with ethyl acetate. Ethyl acetate extracts were dried under N2 and the resultant material was resuspended in 50-100 μl of methanol. Samples were analyzed on an Agilent 1100 HPLC, equipped with a quaternary pump (model #G1311A), a degasser (model #G1322A), an autosampler (model #G1313A), and a diode array detector (model #G1315A). Samples of 20 μl were applied to an ODS2 reverse-phase column (5 μm particle size, 4.6×250 mm) and eluted in 1% (v/v) phosphoric acid with an increasing gradient of acetonitrile (0-5 min, 25%; 5-35 min, 25-50%; 35-39 min, 50-100%) at a flow rate of 1 ml/min. To resolve the 4′-O-methylated and 7-O-methylated products of genistein, samples were applied to a Phenomenex SYNERGI Polar-RP 80 Å column (4 μm particle size, 4.6×250 mm) and eluted in water with an increasing gradient of acetonitrile (0-5 min, 20%; 5-17 min, 20-38%; 17-33 min, 38%; 33-45 min, 38-56%; 45-46 min, 56-100%) at a flow rate of 1 ml/min. Chiral chromatography was performed as described (Liu et al., 2005).
(§3) For determination of specific activities, reactions (100 μl) were performed in 0.1 M potassium phosphate, pH 7.4, 10% (w/v) sucrose, 14 mM β-mercaptoethanol with 0.2-μg protein, 50 μM S-adenosyl-L-methionine (0.025 μCi ^14C-SAM per reaction), and 100 μM substrate. Reactions were incubated at 30° C. for 15-25 min and stopped by addition of 4 μl of 1N HCl. Products were extracted into 500 μl of ethyl acetate and 400 μl was used for liquid scintillation counting.
(§4) An HP 1100 series II LC system (Hewlett-Packard, Palo Alto, Calif.) with a photodiode array detector was coupled to a Bruker Esquire ion-trap mass spectrometer (ITMS) equipped with an electrospray ionization source. A reverse phase, C18, 5 μm, 4.6×250 mm column (J. T. Baker, Phillipsburg, N.J.) was used for separations. The mobile phase consisted of 0.1% (v/v) acetic acid using linear gradients of 5-90% acetonitrile (v/v) in 70 min. The flow rate was 0.8 ml/min, and the temperature of the column was kept at 28° C. Both positive- and negative-ion mass spectra were acquired.

[2] = target: T1, MtIOMT5 (Medicago truncatula, UniProt Q29U70); assay: OMT assays with purified recombinant MtIOMT5 (relative activity; HPLC/MS of products); type: biochemical; conditions: for Position of methylation / reaction products, MtIOMT5: HPLC against standards, tandem MS
T1 construct: His-tag (N); made in house; host or cells: E. coli BL21(DE3)
T1 sequence (Q29U70 1-364): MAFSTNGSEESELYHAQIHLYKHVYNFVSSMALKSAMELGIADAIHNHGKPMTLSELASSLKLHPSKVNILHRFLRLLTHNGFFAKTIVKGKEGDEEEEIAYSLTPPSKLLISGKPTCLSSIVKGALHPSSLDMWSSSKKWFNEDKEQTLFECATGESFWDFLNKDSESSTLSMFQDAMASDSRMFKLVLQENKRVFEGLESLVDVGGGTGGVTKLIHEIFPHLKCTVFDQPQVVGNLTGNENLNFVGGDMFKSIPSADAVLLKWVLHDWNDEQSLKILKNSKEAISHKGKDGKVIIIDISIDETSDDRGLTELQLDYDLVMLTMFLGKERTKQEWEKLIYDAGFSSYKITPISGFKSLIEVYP
Source text: as §1, §2, §3
as §4, with “acquired. […]” for “acquired.”

[3] = target: T2, MsI7OMT (Medicago sativa, UniProt O24529); conditions: reported by He et al., 1998; cited from earlier work
T2 sequence (O24529 1-352): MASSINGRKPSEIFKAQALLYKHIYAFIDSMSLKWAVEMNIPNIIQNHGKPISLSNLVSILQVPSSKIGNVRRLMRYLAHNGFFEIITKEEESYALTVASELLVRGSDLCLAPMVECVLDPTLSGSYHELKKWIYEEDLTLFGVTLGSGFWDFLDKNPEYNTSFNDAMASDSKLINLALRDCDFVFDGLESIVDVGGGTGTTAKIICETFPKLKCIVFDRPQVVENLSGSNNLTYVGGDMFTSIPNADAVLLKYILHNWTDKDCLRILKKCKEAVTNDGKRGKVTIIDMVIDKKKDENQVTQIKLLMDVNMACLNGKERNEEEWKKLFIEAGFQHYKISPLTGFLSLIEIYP

[4] = Quantification of methylated products in reactions with dihydrodaidzein; type: biochemical
Method: as §2
An HP 1100 series II LC system (Hewlett-Packard, Palo Alto, Calif.) with a photodiode array detector was coupled to a Bruker Esquire ion-trap mass spectrometer (ITMS) equipped with an electrospray ionization source. A reverse phase, C18, 5 μm, 4.6×250 mm column (J. T. Baker, Phillipsburg, N.J.) was used for separations. The mobile phase consisted of 0.1% (v/v) acetic acid using linear gradients of 5-90% acetonitrile (v/v) in 70 min. The flow rate was 0.8 ml/min, and the temperature of the column was kept at 28° C. Both positive- and negative-ion mass spectra were acquired. Positive-ion ESI was performed using an ion source voltage of 4.0 KV and a capillary offset voltage of 86.0 V. Nebulization was aided with a coaxial nitrogen sheath gas provided at a pressure of 60 psi. Desolvation was aided using a counter current nitrogen flow set at a pressure of 12 psi and a capillary temperature of 300° C. Mass spectra were recorded over the range 50-2200 m/z. The ITMS was operated under an ion current control of approximately 10,000 with a maximum acquire time of 100 ms. Tandem mass spectra were obtained in manual mode for targeted masses using an isolation width of 2.0, fragmentation amplitude of 2.2 and threshold set at 6,000.
To determine the regio-specificity of methylation, reaction products were subjected to HPLC separation and identified by comparison to available standards, or subjected to tandem MS analysis (FIGS. 10-13; Table 4)

[5] = Specific activity of the purified IOMTs with the most converted substrate; type: biochemical; conditions: 50 μM S-adenosyl methionine, 100 μM acceptor substrate
Method: as §3

With `O=C1c2ccc(O)cc2OC(O)C1c1ccc(O)cc1` (stereo not drawn) [2,7,4′-trihydroxyisoflavanone] the “Relative activity, MtIOMT7” value [1] was 24.8%, the “Relative activity, MtIOMT5” value ([2]; 50 μM S-adenosyl methionine, 100 μM acceptor substrate, most converted substrate = 100%) was 100% and the “Position of methylation / reaction products, MtIOMT5” value [2] was “exclusively methylated on the 4′-position”.

For `O=C1C[C@@H](c2ccc(O)cc2)Oc2cc(O)ccc21` [Liquiritigenin], the “Position of methylation / reaction products, MtIOMT5” value [2] was “methylated on the 4′-positions” and the “Enantiomer methylated, MtIOMT5” value ([2]; chiral HPLC of unreacted substrate) was “preferentially methylates the (2R)-enantiomer”.

For `COc1ccc(-c2coc3cc(O)cc(O)c3c2=O)cc1` [biochanin A], the “Activity of MsI7OMT with 4′-methoxyisoflavones (in words)” value [3] is listed as “little activity”.

With “MtIOMT1: M. truncatula isoflavonoid O-methyltransferase, His-tagged, expressed in E. coli; GenBank AY942159 (TYVGGDMFTSIPNADAVLLKYILHNWTDKDCTRILKKCKE; cysteine pairing not given here; also: His-tagged; listed as Medicago truncatula)” the “% 4′-Methylated” value [4] was 0%, the “% 7-Methylated” value [4] was over 99% and the “% Dimethylated” value [4] was under 1%. For the same compound, the “Ratio 4′/7-methylated” value [4] was 0 and the “Specific activity at 100%” value [5] was 3646.7 pkat/mg.

With “MtIOMT2: M. truncatula isoflavonoid O-methyltransferase, His-tagged, expressed in E. coli; GenBank DQ419910 (NFVGGDMFKSVPSADAVLLKWVLHDWNDELCLKILKNCKE; His tag; listed as Medicago truncatula)” the “% 4′-Methylated” value [4] was 33%, the “% 7-Methylated” value [4] was 66% and the “% Dimethylated” value [4] was under 1%. The “Ratio 4′/7-methylated” value [4] was 0.5 and the “Specific activity at 100%” value [5] was 930.2 pkat/mg.

With “MtIOMT3: M. truncatula isoflavonoid O-methyltransferase, His-tagged, expressed in E. coli; GenBank DQ419911 (TYVGGDMFISVPKADAVLLKAVLHDWTDKDCIKILKKCKE; cysteine pairing not given here; also: His-tagged; listed as Medicago truncatula)” the “% 4′-Methylated” value [4] was 92%, the “% 7-Methylated” value [4] was 8% and the “% Dimethylated” value [4] was 0%. For the same compound, the “Ratio 4′/7-methylated” value [4] was 11.4 and the “Specific activity at 100%” value [5] was 7.4 pkat/mg.
